{"source": "patent US9271492B2", "about": "“Antimicrobial composition” (Rohm and Haas Company, priority 2011, dated 2016)", "format_in_all_cases": "cell-based", "key": {"[1]": {"system": "Escherichia coli (E. coli - ATCC #10536)", "assay": "Example 2: high resolution MBC synergy assay in phosphate buffer containing 5% dipropylene glycol", "conditions": "for ΣFBC: calculated from Ca/MBCA + Cb/MBCB; for MBC of component alone (MBCA, MBCB) / Cb, end-point (MBC) of second component carveol in the mixture / Ca, end-point (MBC) of first component thymol in the mixture / Cb, end-point (MBC) of second component perillyl alcohol in the mixture: complete kill in 15 seconds; for MBC of component alone (MBCA, MBCB): phosphate buffer with 5% DPG, about 1×10^8 bacteria per mL; for Cb, end-point (MBC) of second component carveol in the mixture / Cb, end-point (MBC) of second component perillyl alcohol in the mixture: mixture with thymol at Ca", "procedure": "In this Example, a wide range of combinations of chemicals was tested by conducting high resolution MBC assays of carveol or perillyl alcohol in the presence of various concentrations of thymol. […] The MBC plate was inoculated one column at a time with the test microorganism. An aliquot of the inoculated well was transferred at 15 seconds to a plate containing a neutralizing agent (D/E Neutralizing Broth), mixed and held for 5 minutes before being transferred to a growth plate containing trypticase soy broth (TSB). The TSB plate was incubated at 37° C. and read for the presence/absence of growth at 24 hours. […] This microorganism is representative of natural contaminants in many consumer and industrial applications. […] The tables show the specific combinations of two components; results against the microorganism tested; the end-point activity in weight % measured by the MBC for the first component alone (thymol, MBCA), for the second component alone ([…] alcohol, MBCB), for the first component in the mixture (Ca) and for the second component in the mixture (Cb); the calculated ΣFBC value; and the range of synergistic ratios for each combination tested (first component to second component or A/B) against the particular microorganism."}, "[2]": {"system": "Escherichia coli (E. coli ATCC #10536)", "assay": "Example 3: automated assessment of efficacy in surfactant base (2.85% sodium cocoyl glycinate + 1.85% sodium lauroamphoacetate, pH 10)", "conditions": "for bactericidal efficacy in combination with thymol (in words): in combination with thymol at concentrations lower than their MBC in the same surfactant formulation, complete kill in all 4 or 3 replicates; for MBC (minimum biocidal concentration): component alone in 2.85% sodium cocoyl glycinate + 1.85% sodium lauroamphoacetate solution at pH 10", "procedure": "In these examples, the efficacy of combinations of thymol and menthadiene alcohols were tested in a surfactant cleansing formulation comprising 2.85% sodium cocoyl glycinate and 1.85% sodium lauroamphoacetate. This corresponds to a 50% in use dilution with water of a typical neat formulation containing 5.7% cocoyl glycinate and 3.7% % sodium lauroamphoacetate during hand washing. Solutions were prepared such that the concentrations of the surfactant components and test actives were 1.1 times the final desired concentration in order to allow for dilution with the bacterial inoculum in the test. The solutions were manually adjusted to pH 10.0 by dropwise addition of sodium hydroxide solution, as measured with a pH meter at ambient temperature. Solutions of the thymol and/or menthadiene alcohols were prepared at a maximum of 24 hours before testing. The same thymol and menthadiene alcohols were used as in Example 1.\nThe efficacy of the combinations of the present invention was determined against the same bacterium as in Example 1, Escherichia coli (E. coli ATCC #10536), at a concentration of approximately 1×10^8 bacteria per mL.\nTests were conducted using standard microtiter plate assays using an automated liquid handling system. 270 μl of the surfactant test solution was pipetted into each well of the microtitre plate (Nunc F Gamma Irradiated 96F untreated microtitre plates of clear polystyrene) and 30 μl of the bacterial suspension was then added. After exactly 15 seconds of bacterial exposure, a 30 μl volume of bacterial cells was withdrawn and transferred to 270 μl of D/E quench solution. After 5 minutes in the D/E quench, the optical density (OD) was measured for each plate in turn at two specific wavelengths (450 nm and 590 nm). These provide a dual check of antimicrobial activity, as the OD450 reading is specific for the yellow colour of D/E quench when bacterial growth is observed, whereas OD590 is specific for the initial purple colour of the D/E quench which is retained if no bacterial growth is observed. […] Delta OD values were calculated by subtracting […] at time=16 hours. […] To identify antibacterially efficacious systems (those preventing appreciable bacterial growth after incubation), the following threshold changes in OD readings have been adopted: if (1). OD450 increases by less than 0.2 absorbance unit (AU) on incubation and (2). […] The number of replicate wells showing either bacterial growth or no growth is also readily assessed by eye by following the colour change. […]\nIn each case, binary mixtures were assessed in the weight to weight ratio of thymol to menthadiene alcohol of 1:2.5."}, "[3]": {"system": "Escherichia coli (10536 strain)", "assay": "Example 1: 15 second contact suspension kill assay, mean bacterial survival and MBC", "conditions": "component alone; lowest concentration giving complete kill after 15 seconds; upper boundary to the MBC"}}, "data": [{"compound": "C=C(C)C1CC=C(C)C(O)C1", "note": "(stereo not shown) [carveol, 2-methyl-5-(prop-1-en-2-yl)cyclohex-2-enol]", "values": [{"measurement": "ΣFBC", "setting": "[1]", "value": 1.00}, {"measurement": "MBC of component alone (MBCA, MBCB)", "setting": "[1]", "value": 0.7, "unit": "weight %"}, {"measurement": "Cb, end-point (MBC) of second component carveol in the mixture", "setting": "[1]; thymol to carveol ratio 1 to 0.05", "value": 0.025, "unit": "weight %"}, {"measurement": "Cb, end-point (MBC) of second component carveol in the mixture", "setting": "[1]; thymol to carveol ratio 1 to 0.08", "value": 0.05, "unit": "weight %"}, {"measurement": "Cb, end-point (MBC) of second component carveol in the mixture", "setting": "[1]; thymol to carveol ratio 1 to 0.25", "value": 0.075, "unit": "weight %"}, {"measurement": "Cb, end-point (MBC) of second component carveol in the mixture", "setting": "[1]; thymol to carveol ratio 1 to 0.5", "value": 0.1, "unit": "weight %"}, {"measurement": "Cb, end-point (MBC) of second component carveol in the mixture", "setting": "[1]; thymol to carveol ratio 1 to 4.38", "value": 0.35, "unit": "weight %"}, {"measurement": "bactericidal efficacy in combination with thymol (in words)", "setting": "[2]", "value": "15 second bactericidal efficacy"}, {"measurement": "MBC (minimum biocidal concentration)", "setting": "[3]", "value": 0.3, "unit": "% w/v"}]}, {"compound": "Cc1ccc(C(C)C)c(O)c1", "note": "[thymol, 2-isopropyl-5-methylphenol]", "values": [{"measurement": "ΣFBC", "setting": "[1]", "value": 1.00}, {"measurement": "Ca, end-point (MBC) of first component thymol in the mixture", "setting": "[1]; mixture with carveol at Cb, thymol to carveol ratio 1 to 0.05", "value": 0.5, "unit": "weight %"}, {"measurement": "Ca, end-point (MBC) of first component thymol in the mixture", "setting": "[1]; mixture with carveol at Cb, thymol to carveol ratio 1 to 0.08", "value": 0.6, "unit": "weight %"}, {"measurement": "Ca, end-point (MBC) of first component thymol in the mixture", "setting": "[1]; mixture with carveol at Cb, thymol to carveol ratio 1 to 0.19", "value": 0.4, "unit": "weight %"}, {"measurement": "Ca, end-point (MBC) of first component thymol in the mixture", "setting": "[1]; mixture with carveol at Cb, thymol to carveol ratio 1 to 0.25", "value": 0.3, "unit": "weight %"}, {"measurement": "Ca, end-point (MBC) of first component thymol in the mixture", "setting": "[1]; mixture with carveol at Cb, thymol to carveol ratio 1 to 0.5", "value": 0.2, "unit": "weight %"}, {"measurement": "Ca, end-point (MBC) of first component thymol in the mixture", "setting": "[1]; mixture with carveol at Cb, thymol to carveol ratio 1 to 3.5", "value": 0.1, "unit": "weight %"}, {"measurement": "Ca, end-point (MBC) of first component thymol in the mixture", "setting": "[1]; mixture with carveol at Cb, thymol to carveol ratio 1 to 4.38", "value": 0.08, "unit": "weight %"}, {"measurement": "Ca, end-point (MBC) of first component thymol in the mixture", "setting": "[1]; mixture with perillyl alcohol at Cb, thymol to perillyl alcohol ratio 1 to 0.17", "value": 0.3, "unit": "weight %"}, {"measurement": "Ca, end-point (MBC) of first component thymol in the mixture", "setting": "[1]; mixture with perillyl alcohol at Cb, thymol to perillyl alcohol ratio 1 to 0.5", "value": 0.2, "unit": "weight %"}, {"measurement": "Ca, end-point (MBC) of first component thymol in the mixture", "setting": "[1]; mixture with perillyl alcohol at Cb, thymol to perillyl alcohol ratio 1 to 2.5", "value": 0.08, "unit": "weight %"}, {"measurement": "MBC (minimum biocidal concentration)", "setting": "[2]", "value": 0.2, "unit": "% w/v"}]}, {"compound": "C=C(C)[C@@H]1CC=C(CO)CC1", "note": "[perillyl alcohol, (S)-(4-(prop-1-en-2-yl)cyclohex-1-en-1-yl)methanol]", "values": [{"measurement": "ΣFBC", "setting": "[1]", "value": 1.00}, {"measurement": "MBC of component alone (MBCA, MBCB)", "setting": "[1]", "value": 0.3, "unit": "weight %"}, {"measurement": "Cb, end-point (MBC) of second component perillyl alcohol in the mixture", "setting": "[1]; thymol to perillyl alcohol ratio 1 to 0.13", "value": 0.025, "unit": "weight %"}, {"measurement": "Cb, end-point (MBC) of second component perillyl alcohol in the mixture", "setting": "[1]; thymol to perillyl alcohol ratio 1 to 0.17", "value": 0.05, "unit": "weight %"}, {"measurement": "Cb, end-point (MBC) of second component perillyl alcohol in the mixture", "setting": "[1]; thymol to perillyl alcohol ratio 1 to 0.38", "value": 0.075, "unit": "weight %"}, {"measurement": "Cb, end-point (MBC) of second component perillyl alcohol in the mixture", "setting": "[1]; thymol to perillyl alcohol ratio 1 to 0.5", "value": 0.1, "unit": "weight %"}, {"measurement": "Cb, end-point (MBC) of second component perillyl alcohol in the mixture", "setting": "[1]; thymol to perillyl alcohol ratio 1 to 2.5", "value": 0.2, "unit": "weight %"}, {"measurement": "MBC (minimum biocidal concentration)", "setting": "[2]", "value": 0.5, "unit": "% w/v"}, {"measurement": "bactericidal efficacy in combination with thymol (in words)", "setting": "[2]", "value": "15 second bactericidal efficacy"}, {"measurement": "MBC (minimum biocidal concentration)", "setting": "[3]", "value": 0.1, "unit": "% w/v"}]}]}
